Results as given in patent US3974140A, “Ureidoacetamido-penicillins” (Bayer Aktiengesellschaft, priority 1970, dated 1976).
“And” between values parts separate entries of the source, which are not always exact repeats. Equal values may be shown once.

Key:
Test in all cases: MIC, liquid medium test tube series dilution test
[1] = system: E. coli 14; assay type: cell-based; details: E. coli 14, 24 hours, 37°C
Protocol: (§1) The chemotherapeutic activity of the new penicillins was tested in vivo and in vitro. The in vitro inhibition values (MIC = minimum inhibition concentration (see Tables 1 and 2) were determined in a liquid medium in the test tube series dilution test, with readings being taken after 24 hours' incubation at 37°C. The MIC is indicated by the non-turbid test tube in the dilution series. A complete medium of the following composition was used as the nutrient medium:
(§2) The figures quoted in the Examples for the effectiveness against certain bacteria (units/ml) are minimum inhibitory concentrations in the test tube series dilution test after 24 hours' incubation.

[2] = system: E. coli 183/58; assay type: cell-based; details: E. coli 183/58, 24 hours, 37°C
Protocol: as §1, §2

[3] = system: E. coli A 261; assay type: cell-based; details: E. coli A 261, 24 hours, 37°C
Protocol: as §1, §2

[4] = system: E. coli C 165; assay type: cell-based; details: E. coli C 165, 24 hours, 37°C
Protocol: as §1, §2

[5] = system: Klebsiella 63; assay type: cell-based; details: Klebsiella 63, 24 hours, 37°C
Protocol: as §1, §2

[6] = system: Klebsiella K 10; assay type: cell-based; details: Klebsiella K 10, 24 hours, 37°C
Protocol: as §1, §2

[7] = system: Streptoc. faec. ATCC 9790; assay type: cell-based; details: Strep. faec. (Enterococcus) ATCC 9790, 24 hours, 37°C
Protocol: as §1, §2

[8] = system: Proteus vulg. 1017; assay type: cell-based, Proteus vulgaris; details: Proteus vulg. 1017, 24 hours, 37°C
Protocol: as §1, §2

[9] = system: Proteus vulg. 3400; assay type: cell-based, Proteus vulgaris; details: Proteus vulg. 3400, 24 hours, 37°C
Protocol: as §1, §2

[10] = system: Psdm. aerug. Bonn; assay type: cell-based, Pseudomonas aerug.; details: 24 hours, 37°C
Protocol: as §1, §2

[11] = system: Psdm. aerug. Walter; assay type: cell-based, Pseudomonas aerug.; details: 24 hours, 37°C
Protocol: as §1, §2

[12] = system: Staph. aureus 133; assay type: cell-based, Staphylococcus aureus; details: Staph. aureus 133, 24 hours, 37°C
Protocol: as §1, §2

| Compound | MIC [1] | MIC [2] | MIC [3] | MIC [4] | MIC [5] | MIC [6] | MIC [7] | MIC [8] | MIC [9] | MIC [10] | MIC [11] | MIC [12] |
| --- | --- | --- | --- | --- | --- | --- | --- | --- | --- | --- | --- | --- |
| CN(C(=O)NC(C(=O)N[C@@H]1C(=O)N2[C@@H]1SC(C)(C)[C@@H]2C(=O)O)c1c(Cl)cccc1Cl)C(=O)c1ccccc1 (stereo partly drawn) [Example 31, Sodium α-(3-benzoyl-3-methyl-ureido)-2,6-dichlorobenzyl-penicillin] | 20-100 units/ml | 20-100 units/ml | > 500 units/ml | 100-500 units/ml | 100-500 units/ml | 100-500 units/ml | > 500 units/ml | 100-500 units/ml | 100-500 units/ml | approx. 500 units/ml | 100-500 units/ml | 0.8-4 units/ml |
| CCOC(=O)N(C)C(=O)NC(C(=O)N[C@@H]1C(=O)N2[C@@H]1SC(C)(C)[C@@H]2C(=O)O)c1ccc(SC)cc1 (stereo partly drawn) [Example 35, Sodium α-(3-ethoxycarbonyl-3-methyl-ureido)-4-methylthiobenzylpenicillin] | approx. 4 units/ml | 4-20 units/ml | 100-500 units/ml | 20-100 units/ml | 20-100 units/ml | 20-100 units/ml | 20-100 units/ml | 20-100 units/ml | 20-100 units/ml | 4-20 units/ml | approx. 20 units/ml | < 0.8 units/ml |
| CN(C(=O)N[C@@H](C(=O)N[C@@H]1C(=O)N2[C@@H]1SC(C)(C)[C@@H]2C(=O)O)c1ccccc1)C(=O)c1cccs1 [Example 37, Sodium D(-)-α-[3-(2-thenoyl)-3-methyl-ureido]-benzylpenicillin] | < 0.8 units/ml | 0.8-4 units/ml | > 500 units/ml | 0.8-4 units/ml | 4-20 units/ml | 20-100 units/ml | 20-100 units/ml | 4-20 units/ml | 4-20 units/ml | 4-20 units/ml | 4-20 units/ml | < 0.8 units/ml |
| Cc1noc(C)c1C(=O)N(C)C(=O)N[C@@H](C(=O)N[C@@H]1C(=O)N2[C@@H]1SC(C)(C)[C@@H]2C(=O)O)c1ccccc1 [Example 38] | 0.8-4 units/ml | 4-20 units/ml | > 500 units/ml | 4-20 units/ml | 20-100 units/ml | 20-100 units/ml | 100-500 units/ml | 20-100 units/ml | 20-100 units/ml | 20-100 units/ml | 20-100 units/ml | < 0.8 units/ml |
| CC1(C)S[C@@H]2[C@H](NC(=O)[C@H](NC(=O)N(CCCl)C(=O)CCC(Cl)(Cl)Cl)c3ccccc3)C(=O)N2[C@H]1C(=O)O [Example 72, Sodium D(-)-α-(3-γ-trichlorobutyryl-3-β-chloroethyl-ureido)-benzylpenicillin] | 6.25 units/ml | 12.5 units/ml | 400 units/ml | 25 units/ml | 50 units/ml | 100 units/ml | 100 units/ml | 50 units/ml | 200 units/ml | 50 units/ml | 400 units/ml | < 0.78 units/ml |

Other lines, results leading:

| MIC [1] | MIC [2] | MIC [3] | MIC [4] | MIC [5] | MIC [6] | MIC [7] | MIC [8] | MIC [9] | MIC [10] | MIC [11] | MIC [12] | Compound |
| --- | --- | --- | --- | --- | --- | --- | --- | --- | --- | --- | --- | --- |
| 4-20 units/ml | 20-100 units/ml | > 500 units/ml | 20-100 units/ml | 20-100 units/ml | 20-100 units/ml | ~ 100 units/ml | 100-500 units/ml | 100-500 units/ml | 100-500 units/ml | 100-500 units/ml | 0.8-4 units/ml | COC(=O)N(C)C(=O)NC(C(=O)N[C@@H]1C(=O)N2[C@@H]1SC(C)(C)[C@@H]2C(=O)O)c1ccc(OC)cc1 (stereo partly drawn) [Example 18, Sodium D,L-α-(3-methoxycarbonyl-3-methyl-ureido)-4-methoxybenzylpenicillin] |
| 6.3 units/ml | 25 units/ml | > 400 units/ml | 25 units/ml | 100 units/ml | 50 units/ml | 200 units/ml | 100 units/ml | 50 units/ml | 100 units/ml | 100 units/ml | ~ 1.6 units/ml | CN(C(=O)CCCCl)C(=O)N[C@@H](C(=O)N[C@@H]1C(=O)N2[C@@H]1SC(C)(C)[C@@H]2C(=O)O)c1ccccc1 [Example 24, Sodium D(-)-α-(3-γ-chlorobutyryl-3-methyl-ureido)-benzylpenicillin] |
| approx. 20 units/ml | 20-100 units/ml | > 500 units/ml | 20-100 units/ml | approx. 100 units/ml | 100-500 units/ml | 100-500 units/ml | approx. 100 units/ml | 100-500 units/ml | 100-500 units/ml | 100-500 units/ml | ~0.8 units/ml | CN(C(=O)NC(C(=O)N[C@@H]1C(=O)N2[C@@H]1SC(C)(C)[C@@H]2C(=O)O)c1c(Cl)cccc1Cl)C(=O)c1ccccc1 (stereo partly drawn) [Example 32, Sodium α-(3-benzoyl-3-methyl-ureido)-2,6-dichlorobenzyl-penicillin] |
| 6.25 units/ml | 25 units/ml | 400 units/ml | 25 units/ml | 50 units/ml | 50 units/ml | 100 units/ml | 50 units/ml | 25 units/ml | 50 units/ml | 50 units/ml | 1.6 units/ml | Cc1ccc(C(NC(=O)N(C)C(=O)c2ccccc2F)C(=O)N[C@@H]2C(=O)N3[C@@H]2SC(C)(C)[C@@H]3C(=O)O)cc1 (stereo partly drawn) [Example 44, Sodium α-(3-o-fluorobenzoyl-3-methyl-ureido)-α-p-tolyl-methylpenicillin] |
| 1.56 units/ml | 3.12 units/ml | 400 units/ml | 6.25 units/ml | 12.5 units/ml and 25 units/ml | 50 units/ml | 100 units/ml | 12.5 units/ml | 25 units/ml | 12.5 units/ml | 100 units/ml | < 0.78 units/ml | CN(C(=O)CCC(F)(F)F)C(=O)N[C@@H](C(=O)N[C@@H]1C(=O)N2[C@@H]1SC(C)(C)[C@@H]2C(=O)O)c1ccccc1 [Example 69, Sodium D(-)-α-(3-γ-trifluorobutyryl-3-methyl-ureido)-benzylpenicillin] |
| 3.12 units/ml | 3.12 units/ml | 200 units/ml | 6.25 units/ml | 12.5 units/ml | 25 units/ml | 100 units/ml | 12.5 units/ml | 12.5 units/ml | 12.5 units/ml | 100 units/ml | < 0.78 units/ml | Cc1ccc(C(=O)N(C)C(=O)N[C@@H](C(=O)N[C@@H]2C(=O)N3[C@@H]2SC(C)(C)[C@@H]3C(=O)O)c2ccccc2)cc1[N+](=O)[O-] [Example 70, Sodium D(-)-α-(3-[m-nitro-p-methyl]-benzoyl-3-methyl-ureido)-benzylpenicillin] |
| > 400 units/ml | > 400 units/ml | > 400 units/ml | > 400 units/ml | > 400 units/ml | > 400 units/ml | > 400 units/ml | > 400 units/ml | > 400 units/ml | > 400 units/ml | 400 units/ml | 200 units/ml | CCCCCCCCCCCCCCCCCC(=O)N(C)C(=O)N[C@@H](C(=O)N[C@@H]1C(=O)N2[C@@H]1SC(C)(C)[C@@H]2C(=O)O)c1ccccc1 [Example 71, Sodium D(-)-α-(3-stearinoyl-3-methyl-ureido)-benzylpenicillin] |
| 100 units/ml | > 400 units/ml | > 400 units/ml | > 400 units/ml | > 400 units/ml | > 400 units/ml | > 400 units/ml | > 400 units/ml | > 400 units/ml | > 400 units/ml | > 400 units/ml | 25 units/ml | CCCCCCCCCCCCCCCCN(C(C)=O)C(=O)N[C@@H](C(=O)N[C@@H]1C(=O)N2[C@@H]1SC(C)(C)[C@@H]2C(=O)O)c1ccccc1 [Example 74, Sodium D(-)-α-(3-acetyl-3-hexadecyl-ureido)-benzylpenicillin] |
